Data set [1] has as its target T1, ADORA3 receptor (CHO cells stably expressing ADORA3 receptor) (Homo sapiens, UniProt P0DMS8).
T1 construct: expressed in transfected cells
T1 sequence (P0DMS8 1-318): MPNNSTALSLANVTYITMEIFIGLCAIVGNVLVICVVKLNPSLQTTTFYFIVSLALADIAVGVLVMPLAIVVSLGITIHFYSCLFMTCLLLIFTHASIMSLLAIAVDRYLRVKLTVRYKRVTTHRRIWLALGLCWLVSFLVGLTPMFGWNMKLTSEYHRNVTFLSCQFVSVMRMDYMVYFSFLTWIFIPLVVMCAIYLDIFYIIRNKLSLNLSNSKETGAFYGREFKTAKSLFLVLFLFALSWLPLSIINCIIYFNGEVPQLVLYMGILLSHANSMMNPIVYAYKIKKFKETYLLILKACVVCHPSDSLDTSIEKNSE
Briefly: Effect of compound on intracellular cAMP level by adenosine A3 receptor agonism. It counts as cell-based. As to conditions: forskolin-stimulated. The essentials: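 Agonism read as change in forskolin-stimulated cAMP by TR-FRET competition (Eu-cAMP tracer, ULight anti-cAMP antibody). Compound tested as 10 three-fold dilutions on ADORA3-CHO cells in buffer containing rolipram, incubated at 37 °C. Hill fit of % activation against log concentration gives EC50.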

The target of a further data set is T2, ADORA3 receptor (Homo sapiens, UniProt P0DMS8).
T2 sequence (P0DMS8 1-318): T1 sequence (P0DMS8 1-318)
Briefly: Agonistic effect on adenosine A3 receptor by FLIPR assay (calcium flux assay). The format is cell-based. As to conditions: agonist mode. The method, then:
Example 27: Agonistic Effect of Compound on Adenosine A3 Receptor by FLIPR Assay (Calcium Flux Assay)
First Day: Cell Inoculation
• 1) With regard to ADORA3 receptor, cultured cells were used for inoculation: the culture medium was aspirated and the cells were washed twice with 10 mL of DPBS. 2 mL of 0.05% EDTA-trypsin was added and the cells were incubated at 37° C. for 1 minute. Then 10 mL of the culture medium was added to stop the digestion and the cell suspension was transferred to a 50-mL tapered tube. • 2) The 50-mL tapered tube containing the various cells was centrifuged at 300 g for 5 minutes. • 3) A supernatant was aspirated and no cells should be aspirated. • 4) The cell precipitate was resuspended in 6-8 mL of the culture medium, and then 0.5 mL of the cells were taken out for cell counting by using a Vi-cell XR cell viability analyzer. • 5) The cell suspension was diluted to 1×10^6 cells/mL (20 μL of 20,000 cells per well) in the culture medium and the cells were inoculated into a cell plate (384-well Poly-D-lysine protein-coated plate, Greiner-781946). • 6) The plate was placed in a 37° C./5% CO2 incubator for 16-20 hours. Second Day: • 1) Preparation of 2×Fluo-4 Direct™ uptaking dye • a. Preparation of probenecid solution • 1 mL of FLIPR assay buffer was added to 77 mg of probenecid (provided by Fluo-4 Direct™ calcium assay kit) to be prepared into 250 mM of a probenecid solution. The fresh probenecid solution was used daily. • b. 2×(8 μM) Fluo-4 Direct™ loading dye (per 10 mL)
A vial of the Fluo-4 Direct™ crystal was thawed and then 10 mL of the FLTPR analytical buffer was added to the vial. Then 0.2 mL of 250 mM of a probe solution was added to every 10 mL Fluo-4 Direct™ crystal to a final assay concentration of 2.5 mM. The solution was vortexed and stood for >5 min at a dark place. 2×Fluo-4 Direct™ uptaking dye was freshly prepared daily. • 2) Compound preparation • a. Preparation of compound plate: all reference and test compounds were serially diluted 4-fold in 10 points by using an Echo liquid processor and then 900 nL of the diluted compounds were transferred to a compound plate. • b. 30 μL FLIPR analytical buffer was added to the compound plate and the plate was centrifuged at 300 g for 1 minute. • 3) FLIPR analysis • a. With regard to ADORA3 receptor: firstly, the cell plate was taken out from a culture box. The culture medium was then aspirated and 20 μL of the FLIPR analytical buffer was added. The cell plate was placed in an incubator for 45 minutes and at a room temperature for 15 minutes. • b. To run an experimental solution on […], 10 μL of the FLIPR analytical buffer was transferred from the compound plate to a cell plate, and then the fluorescent signal was read. Then 10 μL of a compound solution was transferred from the compound plate to the cell plate and the fluorescence signal was read. “Max−min” was calculated from Reader 91 to an allowed maximum value. • c. With regard to agonist: activation %=(RLU−LC)/(HC−LC)*100, • wherein RLU=relative light unit, allowed maximum signal was 91; HC=average signal of high concentration agonist; and LC=mean signal of DMSO well. • d. Data were fitted to a model “log (agonist) versus response-variable slope” by using GraphPad Prism 5 to determine an EC50 value. • e. […] 2. Test Result

A short description of data set [2]: Pharmacokinetic test of compound in SD rat. It counts as in vivo. Particulars: SD rats, intragastric administration (IG), cassette dosing. The protocol:
Example 28: Pharmacokinetic Test of Compound in SD Rat
The animal species used in this experiment were SD rats. There were 3 animals per group. The rats were dosed in cassette format, i.e., multiple (1-6) different compounds were dosed simultaneously to the same group of the SD rats. The vehicle used for the drug was 5% DMSO+5% Solutl+90% ([…] methylcellulose M450), and the administration route was intragastric administration (IG).

On to `CNC(=O)[C@H]1O[C@@H](n2cnc3c(NCc4cc(C)ccn4)nc(-c4cccnc4)nc32)[C@H](O)[C@@H]1O` [compound 186, (2S,3S,4R,5R)-3,4-dihydroxyl-N-methyl-5-(6-((4-methylpyridin-2-yl)methylamino)-2-(pyridin-3-yl)-9H-purin-9-yl)-tetrahydrofuran-2-formamide], for which the EC50 was less than 0.51 nM in data set [1] and 11.8 nM on ADORA3 receptor. In data set [2], the “AUC_D” value was determined as 786.27 kg·ng·h/mL/mg.
Turning to `CNC(=O)[C@H]1O[C@@H](n2cnc3c(NCc4cc(C)ccc4F)nc(-c4cncc(Cl)c4)nc32)[C@H](O)[C@@H]1O` [compound 226, (2S,3S,4R,5R)-5-(2-(5-chloropyridin-3-yl)-6-((2-fluoro-5-methylbenzyl)amino)-9H-purin-9-yl)-3,4-dihydroxyl-N-methyltetrahydrofuran-2-carboxamide], the EC50 was found to be 1.2 nM in data set [1] and 33.5 nM on ADORA3 receptor. For the same compound, the “AUC_D” value in data set [2] worked out at 20055.61 kg·ng·h/mL/mg.
On the same counts, the results for `[2H]C([2H])([2H])NC(=O)[C@H]1O[C@@H](n2cnc3c(NCc4ccco4)nc(-c4cncc(Cl)c4)nc32)[C@H](O)[C@@H]1O` [compound 256, (2S,3S,4R,5R)-5-(2-(5-chloropyridin-3-yl)-6-((furan-2-ylmethyl)amino)-9H-purin-9-yl)-3,4-dihydroxyl-N-(methyl-d3)tetrahydrofuran-2-carboxamide] are 11.6 nM, 98.5 nM and 706.00 kg·ng·h/mL/mg.
Turning to `CNC(=O)[C@H]1O[C@@H](n2cnc3c(NCc4cc(C)ccn4)nc(-c4cncc(Cl)c4)nc32)[C@H](O)[C@@H]1O` [compound 293, (2S,3S,4R,5R)-5-(2-(5-chloropyridin-3-yl)-6-(((4-methylpyridin-2-yl)methyl)amino)-9H-purin-9-yl)-3,4-dihydroxyl-N-methyltetrahydrofuran-2-carboxamide], the values for the EC50 (in data set [1]; at ADORA3 receptor) were less than 0.51 nM and 3.27 nM, respectively. Besides, the “AUC_D” value in data set [2] was determined as 2016.46 kg·ng·h/mL/mg.
On to `CNC(=O)[C@H]1O[C@@H](n2cnc3c(NCc4ccccn4)nc(-c4cncc(Cl)c4)nc32)[C@H](O)[C@@H]1O` [compound 306, (2S,3S,4R,5S)-5-(2-(5-chloropyridin-3-yl)-6-((pyridin-2-lymethyl)amino)-9H-purin-9-yl)-3,4-dihydroxyl-N-methyltetrahydrofuran-2-carboxamide], for which the figures for the EC50 (in data set [1]; on ADORA3 receptor) were 5.81 nM and 39.2 nM, respectively. In addition, the “AUC_D” value in data set [2] was determined as 659.04 kg·ng·h/mL/mg.
In the case of `CNC(=O)[C@H]1O[C@@H](n2cnc3c(NCc4cccc(Cl)n4)nc(-c4cncc(Cl)c4)nc32)[C@H](O)[C@@H]1O` [compound 308], the EC50 in data set [1] amounted to 3.27 nM; at ADORA3 receptor it was 71.4 nM. Also, the “AUC_D” value in data set [2] is 986.00 kg·ng·h/mL/mg.
`CNC(=O)[C@H]1O[C@@H](n2cnc3c(NCc4cc(C)ccn4)nc(-c4cncc(OC)c4)nc32)[C@H](O)[C@@H]1O` [compound 312]: the EC50 was less than 0.51 nM in data set [1] and 4.05 nM at ADORA3 receptor. In data set [2], the “AUC_D” value is 1820.66 kg·ng·h/mL/mg.
